Read-outs that look alike come from different tables or passages of the source. Bounds are passed on as bounds.

In patent publication US6706747B2, “Conformationally rigid bicyclic and adamantane derivatives useful as α2-adrenergic blocking agents” (Allergan, Inc., priority 1994, dated 2004) one finds Ki data, which are given here for 17 compounds.

One experiment has as its target α1. As to the kind of experiment: Radioligand binding, [3H]prazosin, human cerebral cortex (HCC) membranes. As to conditions: 22° C., 30 minutes. The protocol: Tissue preparation: Membrane suspensions were prepared from human cerebral cortex (HCC) obtained from the UCI Organ and Tissue Bank and rat kidney cortex (RKC). Briefly, tissues (1 g) were homogenized in 25 ml of iced-cold 5 mM tris, pH 7.4 with a Polytron homogenizer for 30 secs at setting# 7, and centrifuged for. 10-12 minutes at 300×g at 4° C. The supernatant was filtered: through 2 layers of gauze and diluted 1:2 with 50 mM Tris-HCI buffer, pH 7.4, then centrifuged at 49,000×g for 20 minutes. The pellet fraction was washed 3 times (resuspended in Tris-HCl buffer and centrifuged for 20 minutes at 49,000×g). The pellet was then stored at −80° C. until the binding assay.
(§1) Binding studies: The radioligands [^3H]rauwolscine (specific activity 80 Ci/mmol) and [^3H]prazosin (specific activity 76 Ci/mmol) were obtained from New England Nuclear, Boston, Mass. Frozen membrane pellet was resuspended in 25 mM glycine/glycine, pH 7.4 and incubated with radioligand under the following conditions: CHO—C10, CHO—RNG, HT-29-[^3H]rauwolscine, 22° C., 30 minutes; RKC-[^3H]rauwolscine, 0° C., 120 minutes; and, HCC-[^3H]prazosin, 22° C., 30 minutes in a final volume of 500 μl. At the end of the incubation period, the samples were filtered through glass fiber filters (Whatman GF/B) in a 96 well cell harvester and rapidly washed four times with 4 ml of ice-cold 50 mM, Tris-HCl buffer. The filters were then oven dried and transferred to scintillation vials containing 5 ml of Beckman's Ready Protein® scintillation cocktail for counting. […] Protein concentrations were determined with a protein assay kit from Bio Rad. Binding isotherms, equilibrium dissociation and affinity constants were analyzed and determined by the non-linear least squares curve fitting programs AccuFit Competition/Saturation by Beckman.
(§2) Frozen membrane pellet was resuspended either 50 mM tris, 2 mM EGTA, 1 mM MgCl2, pH7.5 (RbKC, RbICB-[^3H]brimonidine); 50 mM tris, 0.5 mM EDTA, 5 mM NaCl, pH 7.7 (RbICB-[^3H]rauwolscine); 25 mM glycine/glycine, pH 7.4 (RtKC, CHO—C10, CH—RNG, HT-29, HCC) or 50 mM tris, 0.1 mM MnCl2, pH7.7 (RtCC). Membrane protein homogenate (75-200 μg) was incubated with radioligand under the following conditions: RbKC and RbICB-[^3H]rauwolscine, 22° C., 45 minutes; RtCC and RbICB-[^3H]brimondine, 22° C., 90 minutes; CHO—C10, CHO—RNG and HT-29-[^3H]rauwolscine, 22° C., 30 minutes; HCC—[^3H]prazosin, 22° C., 30 minutes; and, in a final volume of 250 or 500 μl. At the end of the incubation period, the samples were filtered through glass fiber filters (Whatman GF/B) in a 24 or 96 well cell harvester and rapidly washed four times with 4 mls of iced-cold 50 mM Tris-HCl buffer. The filters were then oven dried and transferred to scintillation vials containing 10 mls of, Beckman's Ready Protein® scintillation cocktail for counting. […] Protein concentrations were determined with a protein assay kit from Bio Rad. Binding isotherms, equilibrium dissociation and affinity constants were analyzed and determined by the non-linear least squares curve fitting programs EBDA (BioSoft) or AccuFit Competition/Saturation by Beckman.
The radioligands [^3H]rauwolscine (specific activity 80 Ci/mmol) and [^3H]prazosin (specific activity 76 Ci/mmol) were obtained from New England Nuclear, Boston, Mass. Frozen membrane pellet was resuspended in 25 mM glycine/glycine, pH 7.4 and incubated with radioligand under the following conditions: CHO—C10, CHO—RNG-[^3H]rauwolscine, 22° C., 30 minutes; and, HCC—[^3H]prazosin, 22° C., 30 minutes in a final volume of 500 ul.

Experiment [1] has as its target T1, rat α2B adrenoceptor (CHO-RNG) (Rattus norvegicus, UniProt P19328).
T1 construct: expressed in transfected cells; host or cells: CHO (CHO-RNG)
T1 sequence (P19328 1-453): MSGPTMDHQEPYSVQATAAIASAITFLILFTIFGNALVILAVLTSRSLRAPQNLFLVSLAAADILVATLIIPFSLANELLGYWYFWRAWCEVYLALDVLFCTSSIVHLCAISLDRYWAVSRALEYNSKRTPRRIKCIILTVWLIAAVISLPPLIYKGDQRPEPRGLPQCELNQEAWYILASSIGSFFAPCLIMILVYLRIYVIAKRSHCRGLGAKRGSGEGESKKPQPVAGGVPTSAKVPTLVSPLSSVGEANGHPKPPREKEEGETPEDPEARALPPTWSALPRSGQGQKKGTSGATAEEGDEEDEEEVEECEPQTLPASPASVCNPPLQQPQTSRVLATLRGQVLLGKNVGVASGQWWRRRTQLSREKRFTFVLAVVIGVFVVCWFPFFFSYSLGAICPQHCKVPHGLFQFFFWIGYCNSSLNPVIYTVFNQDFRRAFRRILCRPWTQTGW
As to the kind of experiment: Radioligand binding, [3H]rauwolscine, CHO-RNG cell membranes. As to conditions: 22° C., 30 minutes. The protocol: (§3) Cell preparation: HT-29 and chinese hamster ovary (CHO) cells expressing the human α2A (CHO—C10) receptor and CHO cells (CHO—RNG) expressing the rat α2B adrenoceptor were grown to near confluency in Dulbecco's modified Eagle's medium supplemented with 10% fetal bovine serum using standard cell culture methods. Cells were harvested by scraping and placed into cold buffer of the following composition: 50 mM Tris-HCl, 5 mM EDTA, pH 7.4). Cells were then homogenized with a Polytron homogenizer for 2×10 secs at setting # 7, arid centrifuged for 20 minutes at 49,000×g. The pellet fraction was washed (resuspended in Tris-HCl, pH 8 buffer and centrifuged for 15-20 minutes at 49,000×g) 2 times and stored at −100° C. until binding assay.
as §1, §2
(§4) Cell preparation: Chinese hamster ovary (CHO) cells expressing the human α2A (CHO—C10) and the rat α2B (CHO—RNG) adrenoceptors were grown to near confluency in Dulbecco's modified Eagle's medium supplemented with 10% fetal bovine serum using standard cell culture methods. Cells were harvested by scraping and placed into cold buffer of the following composition: 50 mM Tris-HCl, 5 mM EDTA, pH 7.4). Cells were then homogenized with a Polytron homogenizer for 2×10 secs at setting #7, and centrifuged for 20 minutes at 49,000×g.

Experiment [2] concerns the target T2, human α2A (CHO-C10) receptor (Homo sapiens, UniProt P08913).
T2 construct: expressed in transfected cells; host or cells: CHO (CHO-C10)
T2 sequence (P08913 1-465): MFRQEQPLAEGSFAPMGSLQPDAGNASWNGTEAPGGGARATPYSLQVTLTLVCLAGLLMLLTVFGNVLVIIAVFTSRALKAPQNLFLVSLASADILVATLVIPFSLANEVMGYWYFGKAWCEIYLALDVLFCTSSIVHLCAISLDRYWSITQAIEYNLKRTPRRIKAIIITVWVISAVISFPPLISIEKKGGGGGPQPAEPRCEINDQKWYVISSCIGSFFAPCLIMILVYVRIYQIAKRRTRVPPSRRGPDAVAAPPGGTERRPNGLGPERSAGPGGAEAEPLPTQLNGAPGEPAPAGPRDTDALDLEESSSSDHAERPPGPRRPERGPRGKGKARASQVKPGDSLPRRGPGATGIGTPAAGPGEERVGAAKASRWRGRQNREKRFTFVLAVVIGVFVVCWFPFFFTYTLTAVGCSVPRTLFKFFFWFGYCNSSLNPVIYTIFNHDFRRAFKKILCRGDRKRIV
The experiment in a line: Radioligand binding, [3H]rauwolscine, CHO-C10 cell membranes. As to conditions: CHO-C10, 22° C., 30 minutes. The protocol:
as §3, §1, §2, §4

The mark [3] stands for this setting: read-out: Ki (nM) α2B (CHO-RNG).
The mark [4] stands for this setting: read-out: Ki (nM) α2A (CHO-C10).

For `c1ccc(CCNC2=NCCO2)cc1`, the Ki (in general, a measure of affinity in units of concentration, obtained from inhibition or displacement) on α1 turned out to be 11100 nM; in experiment [1] (setting [3]), 4170 nM; in experiment [2] (setting [4]), 1750 nM.

`c1ccc(C2C3CCC(C3)C2NC2=NCCN2)cc1` (centres unmarked): the Ki was 72 nM in experiment [1] (Ki (nM) α2B (CHO-RNG)) and 14.3 nM in experiment [2] (Ki (nM) α2A (CHO-C10)).

For `NC1C2CCC(C2)C1c1ccccc1` (centres unmarked), the inhibition constant (Ki) came out at 11000 nM at α1, 6100 nM in experiment [1] (setting [3]) and 6570 nM in experiment [2] (setting [4]).

In the case of `c1cc2c(cc1C1C3CCC(C3)C1NC1=NCCO1)OCO2` (centres unmarked), the Ki came to 1860 nM at α1, 4.6 nM in experiment [1] (setting [3]) and 1.1 nM in experiment [2] (setting [4]).

On to `CCC1C2CCC(C2)C1NC1=NCCO1` (centres unmarked), for which the results for the Ki (at α1; in experiment [1] (setting [3]); in experiment [2] (setting [4])) were 24800 nM, 616 nM and 59 nM, respectively.

On to `CCC1C2CCC(C2)C1N` (centres unmarked), for which the inhibition constant (Ki) was more than 100000 nM at α1, 57100 nM in experiment [1] (setting [3]) and 67200 nM in experiment [2] (setting [4]).

For the compound `CC(C)C1C2CCC(C2)C1N` (centres unmarked), the Ki at α1 was more than 100000 nM; in experiment [1] (setting [3]), 20900 nM; in experiment [2] (setting [4]), 23300 nM.

For `CCCC1CCCCC1NC1=NCCO1` (centres unmarked), the inhibitory constant (Ki) came out at 1600 nM at α1, 8.3 nM in experiment [1] (setting [3]) and 0.6 nM in experiment [2] (setting [4]).

Regarding `C1COC(NC2CC3CCC2C3)=N1` (centres unmarked), the values for the inhibitory constant (Ki) (on α1; in experiment [1] (setting [3]); in experiment [2] (setting [4])) were more than 10000 nM, 11.5 nM and 4.2 nM, respectively.

For `CC1(C)C2CCC1(C)C(NC1=NCCO1)C2` (centres unmarked), the inhibitory constant (Ki) is more than 10000 nM on α1, 1930 nM in experiment [1] (setting [3]) and 368 nM in experiment [2] (setting [4]).

`C1COC(NC2CC3CCC2CC3)=N1` (centres unmarked): the results for the Ki (at α1; in experiment [1] (setting [3]); in experiment [2] (setting [4])) were 32500 nM, 770 nM and 119 nM, respectively.

On to `c1ccc(C2C3CCC(C3)C2NC2=NCCO2)cc1` (centres unmarked) [drawing 7], for which the Ki at α1 is 1860 nM; in experiment [1] (setting [3]), 7.8 nM; in experiment [2] (setting [4]), 3.1 nM.

On to `c1ccc(C2C3CCC(C3)C2NC2=NCCO2)cc1` (centres unmarked) [drawing 10], for which the Ki at α1 amounted to 73 nM; in experiment [1] (setting [3]), 27 nM; in experiment [2] (setting [4]) it was 1.9 nM.

Turning to `CCCC1C2CCC(C2)C1NC1=NCCO1` (centres unmarked) [drawing 17], the inhibition constant Ki at α1 was found to be 8600 nM; in experiment [1] (setting [3]), 256 nM; in experiment [2] (setting [4]), 25 nM.

Consider `CCCC1C2CCC(C2)C1NC1=NCCO1` (centres unmarked) [drawing 18], for which the Ki on α1 is 8850 nM; in experiment [1] (setting [3]), 28.1 nM; in experiment [2] (setting [4]) it was 9.8 nM.

With `C1COC(NC23CC4CC(CC(C4)C2)C3)=N1` [drawing 26], the Ki on α1 was more than 10000 nM; in experiment [1] (setting [3]), 358 nM; in experiment [2] (setting [4]) it was 102 nM.

As to `C1COC(NC23CC4CC(CC(C4)C2)C3)=N1` [drawing 27], the results for the inhibitory constant (Ki) (at α1; in experiment [1] (setting [3]); in experiment [2] (setting [4])) were 35000 nM, 1840 nM and 352 nM, respectively.
